Changes are numbered by the printed parent chain. Primed or numbered codes have the meaning given here. The star is where a group is joined. aldehyde′ = not defined here; Cbz = O=C(OCc1ccccc1)*; Moc = COC(=O)*
What was measured:
[1] = logarithmic stability constant of the cation/chelator complex; ionic strength of 0.1 M, 25° C.; cited from earlier work
[2] = molecular target: Protease4 (subtilisin BPN′) (Bacillus amyloliquefaciens, UniProt P00782, Y324L); assay: Storage stability of Protease4 in liquid ADW detergent (residual protease activity, N,N-dimethylcasein hydrolysis); type: biochemical; conditions: Detergent A, Example 2
Excerpt: (§1) Chemicals used as buffers and substrates were commercial products of at least reagent grade. Protease1, Protease2, Protease3, and Protease4, as used in the examples below, are subtilisin proteases. Protease1 has the amino acid sequence shown in SEQ ID NO: 1 (subtilisin 309). Protease2 has the amino acid sequence shown in SEQ ID NO: 2 (variant of subtilisin 309). Protease3 has the amino acid sequence shown in SEQ ID NO: 3 (variant of subtilisin 309). Protease4 has the amino acid sequence shown in SEQ ID NO: 4 (subtilisin BPN′).
Various peptide aldehydes were produced, all with a purity >80%. The peptide aldehydes were dissolved in DMSO to a concentration of 10 mg/ml before use.
(§2) To detergent A from Example 1, the following amount of enzyme and different inhibitors (peptide aldehydes) were added, all samples normalized to 100 g of detergent. […] Three subtilisin proteases were used: Protease1, Protease2, and Protease4, all in concentration of 0.04 g active enzyme protein per gram of enzyme solution.
(§3) The detergents were placed in closed glasses at 37° C. for 2 weeks. Residual activity of protease was measured (by comparison to a reference stored at −18° C.) using standard enzyme analytical method (protease activity measured by hydrolysis of N,N-dimethylcasein at 40° C., pH=8.3).

[3] = molecular target: T1, Protease4 (subtilisin BPN′) (Artificial sequence); assay: cell-based or functional assay
T1 chain: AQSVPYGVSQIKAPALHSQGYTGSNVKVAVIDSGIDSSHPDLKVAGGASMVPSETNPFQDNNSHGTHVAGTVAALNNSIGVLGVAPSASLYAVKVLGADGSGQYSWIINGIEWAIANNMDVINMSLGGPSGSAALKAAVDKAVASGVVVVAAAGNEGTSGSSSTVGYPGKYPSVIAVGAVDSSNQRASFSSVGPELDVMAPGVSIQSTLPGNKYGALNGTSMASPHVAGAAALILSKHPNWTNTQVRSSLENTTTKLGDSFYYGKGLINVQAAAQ

[4] = molecular target: T2, Protease1 (subtilisin 309) (Bacillus lentus); assay: cell-based or functional assay
T2 chain: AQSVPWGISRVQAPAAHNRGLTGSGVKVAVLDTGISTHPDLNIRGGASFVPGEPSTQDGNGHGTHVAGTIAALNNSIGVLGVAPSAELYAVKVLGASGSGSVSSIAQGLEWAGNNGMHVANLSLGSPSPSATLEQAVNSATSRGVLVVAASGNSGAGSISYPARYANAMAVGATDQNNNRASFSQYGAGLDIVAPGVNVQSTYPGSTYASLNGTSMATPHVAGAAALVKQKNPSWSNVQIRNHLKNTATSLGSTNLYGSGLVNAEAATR

[5] = molecular target: T3, Protease2 (variant of subtilisin 309) (Artificial sequence); assay: cell-based or functional assay
T3 chain: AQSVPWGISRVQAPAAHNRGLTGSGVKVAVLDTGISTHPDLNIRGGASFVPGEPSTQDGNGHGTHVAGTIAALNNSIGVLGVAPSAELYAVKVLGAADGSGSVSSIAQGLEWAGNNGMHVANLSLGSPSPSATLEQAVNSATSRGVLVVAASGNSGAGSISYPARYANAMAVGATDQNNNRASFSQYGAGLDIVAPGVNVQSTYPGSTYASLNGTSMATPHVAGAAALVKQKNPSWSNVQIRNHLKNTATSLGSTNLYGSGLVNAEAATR

[6] = molecular target: Protease3 (variant of subtilisin 309) (Lederbergia lenta, UniProt P29600, INS97E); assay: Storage stability of Protease3 in liquid ADW detergent (residual protease activity, N,N-dimethylcasein hydrolysis); type: biochemical; conditions: Protease3, no inhibitor
Protease3 (variant of subtilisin 309), sequence (P29600 other isoform, or with tags, fused parts or gaps INS97E): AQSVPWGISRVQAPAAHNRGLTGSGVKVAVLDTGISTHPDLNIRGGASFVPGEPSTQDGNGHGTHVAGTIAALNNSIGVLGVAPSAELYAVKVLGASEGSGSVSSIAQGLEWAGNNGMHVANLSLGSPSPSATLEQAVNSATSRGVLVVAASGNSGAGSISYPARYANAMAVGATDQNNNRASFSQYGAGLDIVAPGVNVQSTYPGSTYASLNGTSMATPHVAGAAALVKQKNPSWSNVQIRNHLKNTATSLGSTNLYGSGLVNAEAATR
Procedure: as §1, with “Protease2 has the amino acid sequence shown in SEQ ID NO: 2 (variant of subtilisin 309). Protease3 has the amino acid sequence shown in SEQ ID NO: 3 (variant of subtilisin 309).” left out
(§4) The peptide aldehyde hydrosulfite adduct described above was dissolved in 40% propylene glycol and water was added to make a 24% w/w solution of the adduct.
(§5) [formula] […] Protease2 and Protease3 were used in concentrations of 0.04 g active enzyme protein per gram of enzyme solution.
as §3

[7] = molecular target: Protease2 (variant of subtilisin 309) (Lederbergia lenta, UniProt P29600, DUP96-96/S97D); assay: Storage stability of Protease2 in liquid ADW detergent (residual protease activity, N,N-dimethylcasein hydrolysis); type: biochemical; conditions: Protease2, no inhibitor
Procedure: as §1, with “Protease2 has the amino acid sequence shown in SEQ ID NO: 2 (variant of subtilisin 309). Protease3 has the amino acid sequence shown in SEQ ID NO: 3 (variant of subtilisin 309).” left out
as §4, §5, §3, §2

[8] = molecular target: T4, Protease1 (subtilisin 309) (Lederbergia lenta, UniProt P29600); assay: Storage stability of Protease1 in liquid ADW detergent (residual protease activity, N,N-dimethylcasein hydrolysis); type: biochemical; conditions: Protease1, no inhibitor, Detergent A, Example 2
T4 sequence (P29600 1-269): T2 chain
Procedure: as §1, with “Protease2 has the amino acid sequence shown in SEQ ID NO: 2 (variant of subtilisin 309). Protease3 has the amino acid sequence shown in SEQ ID NO: 3 (variant of subtilisin 309).” left out
as §2, §3

O=C(O)CC(NCCNC(CC(=O)O)C(=O)O)C(=O)O (mixture of isomers) [EDDS, ethylenediaminedisuccinic acid]
Log KCa [1]: 4.6

O=P(O)(O)CN(CP(=O)(O)O)CP(=O)(O)O [AMP, Amino-tris-(methylene-phosphonic acid)]
Log KCa [1]: 1.7

O=C([O-])[O-].[Na+].[Na+] [Carbonate, sodium carbonate]
Log KCa [1]: 7.8

O=C(O)CC(O)(CC(=O)O)C(=O)O [Citric acid]
Log KCa [1]: 3.5

O=P(O)(O)CN(CCN(CP(=O)(O)O)CP(=O)(O)O)CCN(CP(=O)(O)O)CP(=O)(O)O [DTPMP, Diethylenetriamine Penta(Methylene Phosphonic acid)]
Log KCa [1]: 7.1

O=C(O)CN(CCN(CC(=O)O)CC(=O)O)CC(=O)O [EDTA, Ethylenediaminetetraacetic acid]
Log KCa [1]: 10.7

O=C([O-])CC[C@@H](C(=O)[O-])N(CC(=O)[O-])CC(=O)[O-].[Na+].[Na+].[Na+].[Na+] [GLDA, L-glutamic acid N,N-diacetic acid tetra sodium salt]
Log KCa [1]: 5.2

CC(O)(P(=O)(O)O)P(=O)(O)O [HEDP, 1-Hydroxy Ethylidene-1,1-Diphosphonic Acid]
Log KCa [1]: 6

O=C(O)CC(NC(CC(=O)O)C(=O)O)C(=O)O (stereo not drawn) [IDS, iminodisuccinic acid]
Log KCa [1]: 5.2

CC(C(=O)O)N(CC(=O)O)CC(=O)O (stereo not drawn) [MGDA, methylglycinediacetic acid]
Log KCa [1]: 7

O=C(O)CN(CC(=O)O)CC(=O)O [NTA, Nitrilotriacetic acid]
Log KCa [1]: 6.4

O=P(O)(O)CN(CP(=O)(O)O)CP(=O)(O)O [NTMP, Nitrilo trimethylene phosphonic acid]
Log KCa [1]: 7.6

O=P(O)(O)OP(=O)(O)O [Pyrophosphate]
Log KCa [1]: 5

O=P(O)(O)OP(=O)(O)OP(=O)(O)O [STPP, sodium tripolyphosphate]
Log KCa [1]: 5.36

Moc-Val-Ala-Leu-H (Moc-Val-Ala-Leu-{aldehyde′}; reading uncertain; also: printed as Moc-Val-Ala-Leu-H) [peptide aldehyde, Moc is methoxycarbonyl]
Residual protease activity after two weeks at 37° C. ([2]; Protease4 with 3.3 mg peptide aldehyde/100 g (mole ratio 3.2)): 57%

Moc-Val-Ala-Leu-aldehyde (also: C-terminal aldehyde on Leu) [Moc-Val-Ala-Leu-H]
Residual protease activity after two weeks at 37° C. [3]: 57%

Cbz-Gly-Ala-Tyr-aldehyde (also: C-terminal aldehyde on Tyr) [Cbz-Gly-Ala-Tyr-H]
Residual protease activity after two weeks at 37° C. [4]: 81% | Residual protease activity after two weeks at 37° C. [5]: 86%

B1: Protease3: subtilisin protease, SEQ ID NO: 3 (variant of subtilisin 309) (protein)
chain: T3 chain with A97S, D98E
modifications: variant of SEQ ID NO 1
Residual protease activity after two weeks at 37° C. ([6]; Detergent A (invention)): 6% | Residual protease activity after two weeks at 37° C. ([6]; Detergent B (invention)): 44% | Residual protease activity after two weeks at 37° C. ([6]; Detergent C (reference)): 74%

B2: Protease2: subtilisin protease, SEQ ID NO: 2 (variant of subtilisin 309) (protein)
chain: T3 chain
modifications: variant of SEQ ID NO 1
Residual protease activity after two weeks at 37° C. ([7]; Detergent A (invention), Example 1): 1% | Residual protease activity after two weeks at 37° C. ([7]; Detergent A, Example 2): 1% | Residual protease activity after two weeks at 37° C. ([7]; Detergent B (invention), Example 1): 10% | Residual protease activity after two weeks at 37° C. ([7]; Detergent C (reference), Example 1): 76%

B3: Protease4: subtilisin protease, SEQ ID NO: 4 (subtilisin BPN′) (protein)
chain: T1 chain
modifications: BPN′ variant
Residual protease activity after two weeks at 37° C. ([2]; Protease4, no inhibitor): 5%

B4: Protease1: subtilisin protease, amino acid sequence SEQ ID NO: 1 (subtilisin 309) (protein, listed as Bacillus lentus)
chain: T2 chain
Residual protease activity after two weeks at 37° C. [8]: 25%

Source: patent US10308899B2, “Liquid automatic dish washing detergent compositions” (Novozymes A/S, priority 2013, dated 2019)
